The text below walks through data of US20240409585A1, “MACROCYCLIC IMMUNOMODULATORS” (priority 2021, published 2024).

Molecules are shown by their SMILES. Bridge positions count the residues as written; N and C are the ends. Square brackets hold non-standard residues; d marks the D form. Peptide text beside a SMILES is read from it. * marks the point of attachment. ξ: configuration not given here. Ala(morpholin-4-yl) = N[C@@H](CN1CCOCC1)C(=O)O; Phe(4-COOH) = N[C@@H](Cc1ccc(C(=O)O)cc1)C(=O)O; Bip = N[C@@H](Cc1ccc(-c2ccccc2)cc1)C(=O)O; Phe(3-F) = N[C@@H](Cc1cccc(F)c1)C(=O)O; Phe(3-Me) = Cc1cccc(C[C@H](N)C(=O)O)c1; Val(3-OH) = CC(C)(O)[C@H](N)C(=O)O; ξW = NC(Cc1c[nH]c2ccccc12)C(=O)O; Cha = N[C@@H](CC1CCCCC1)C(=O)O; Ile(3ξ) = CCC(C)[C@H](N)C(=O)O; Thr(3ξ) = CC(O)[C@H](N)C(=O)O; Carboxymethyl = O=C(O)C*; NMeA = CN[C@@H](C)C(=O)O; Orn = NCCC[C@H](N)C(=O)O; Dab = NCC[C@H](N)C(=O)O; NH(CH2)3NH2 = NCCCN*

By IC50 is commonly meant the point on the concentration scale where inhibition reaches its midpoint.

The target in the test is T1, PE-labeled human PD-L1-Ig binding to Jurkat cell line over-expressing human PD-1 (Jurkat-PD-1) (Homo sapiens, UniProt Q15116).
T1 construct: expressed in transfected cells; host or cells: Jurkat
T1 sequence (Q15116 25-288): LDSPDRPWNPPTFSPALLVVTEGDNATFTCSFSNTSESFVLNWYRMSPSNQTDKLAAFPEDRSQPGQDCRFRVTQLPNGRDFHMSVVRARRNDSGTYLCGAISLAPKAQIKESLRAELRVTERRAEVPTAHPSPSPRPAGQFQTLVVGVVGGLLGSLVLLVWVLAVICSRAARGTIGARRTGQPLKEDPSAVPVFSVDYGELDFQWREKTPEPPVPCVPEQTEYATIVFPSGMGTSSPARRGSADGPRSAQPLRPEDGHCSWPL
The test can be described thus: Jurkat-PD-1 Cell Binding High-Content Screening Assay (CBA): Method 1. The following applies: Jurkat-hPD-1 cells, PE-labeled PD-L1-Ig 20 nM final; read-out: Jurkat HPDL1 PD1 IC50 (uM) (Method 1).
`Cc1cccc(C[C@@H]2NC(=O)[C@H](CC(=O)O)NC(=O)[C@H](Cc3ccc(C(=O)O)cc3)NC(=O)[C@H](Cc3ccc(OCC(=O)O)cc3)NC(=O)CSC[C@@H](C(=O)N[C@@H](CO)C(N)=O)NC(=O)[C@H](CO)NC(=O)[C@H](C(C)C)NC(=O)[C@H](CC(C)C)NC(=O)[C@H](CCN)NC(=O)[C@@H](CC(C)C)NC(=O)[C@H](C)N(C)C(=O)[C@H](C(C)C)NC(=O)[C@H](Cc3ccc(-c4ccccc4)cc3)NC(=O)[C@H](CC(C)C)NC2=O)c1` [Compound 2111] ({CH2CO}-Y(Carboxymethyl)[Phe(4-COOH)]D[Phe(3-Me)]L[Bip]V[NMeA][dL][Dab]LVSCS-NH2; thioether N-14): the IC50 worked out at 0.01 µM.
The result for `Cc1cccc(C[C@@H]2NC(=O)[C@H](CC(=O)O)NC(=O)[C@H](Cc3ccc(OCC(=O)O)cc3)NC(=O)[C@H](CN3CCOCC3)NC(=O)CSC[C@@H](C(=O)N[C@@H](CCN)C(N)=O)NC(=O)[C@H](CCCN)NC(=O)[C@H](C(C)C)NC(=O)[C@H](Cc3cccc(F)c3)NC(=O)[C@H](CCN)NC(=O)[C@@H](CC(C)C)NC(=O)[C@H](C)N(C)C(=O)[C@H](CCC(N)=O)NC(=O)[C@H](Cc3ccc(-c4ccccc4)cc3)NC(=O)[C@H](Cc3ccc(C(=O)O)cc3)NC2=O)c1` [Example 2294] ({CH2CO}-[Ala(morpholin-4-yl)]Y(Carboxymethyl)D[Phe(3-Me)][Phe(4-COOH)][Bip]Q[NMeA][dL][Dab][Phe(3-F)]V[Orn]C[Dab]-NH2; thioether N-14) reads 0.95 µM; that for `Cc1cccc(C[C@@H]2NC(=O)[C@H](CC(=O)O)NC(=O)[C@H](Cc3ccc(OCC(=O)O)cc3)NC(=O)[C@H](C(C)O)NC(=O)CSC[C@@H](C(=O)N[C@@H](CO)C(=O)O)NC(=O)[C@H](C(C)O)NC(=O)[C@H](C(C)C)NC(=O)[C@H](CC3CCCCC3)NC(=O)[C@H](CCN)NC(=O)[C@@H](CC(C)C)NC(=O)[C@H](C)N(C)C(=O)[C@H](Cc3ccc(OCC(=O)O)cc3)NC(=O)[C@H](Cc3ccc(-c4ccccc4)cc3)NC(=O)[C@H](Cc3ccc(C(=O)O)cc3)NC2=O)c1` (stereo partly drawn) [Compound 2231] ({CH2CO}-[Thr(3ξ)]Y(Carboxymethyl)D[Phe(3-Me)][Phe(4-COOH)][Bip]Y(Carboxymethyl)[NMeA][dL][Dab][Cha]V[Thr(3ξ)]CS-OH; thioether N-14), 0.02 µM; that for `CCC(C)[C@@H]1NC(=O)[C@H](Cc2ccc(-c3ccccc3)cc2)NC(=O)[C@H](C(C)C)NC(=O)[C@H](Cc2c[nH]c3ccccc23)NC(=O)[C@H](CC(=O)O)NC(=O)[C@H](Cc2ccc(O)cc2)NC(=O)[C@H](C(C)O)NC(=O)CSC[C@@H](C(=O)NCCCN)NC(=O)[C@H](C(C)O)NC(=O)[C@H](C(C)(C)O)NC(=O)[C@H](CC2CCCCC2)NC(=O)[C@H](CC(N)=O)NC(=O)[C@@H](CC(C)C)NC(=O)[C@H](C)N(C)C1=O` (stereo partly drawn) [Compound 2266] ({CH2CO}-[Thr(3ξ)]YDWV[Bip][Ile(3ξ)][NMeA][dL]N[Cha][Val(3-OH)][Thr(3ξ)]C-{NH(CH2)3NH2}; thioether N-14), 0.15 µM.
As for `CC(C)C[C@@H]1NC(=O)[C@H](CCCNC(=N)N)NC(=O)C(Cc2c[nH]c3ccccc23)NC(=O)[C@H](C)N(C)C(=O)[C@H](CCCNC(=N)N)NC(=O)[C@H](Cc2ccc(-c3ccccc3)cc2)NC(=O)[C@H](C(C)C)NC(=O)[C@H](Cc2c[nH]c3ccccc23)NC(=O)[C@H](CC(=O)O)NC(=O)[C@H](Cc2ccc(O)cc2)NC(=O)[C@H](Cc2ccccc2)NC(=O)CSC[C@@H](C(=O)NCC(N)=O)NC(=O)[C@H](CO)NC(=O)[C@H](C(C)C)NC1=O` (some centres unmarked) [Compound 1021] ({CH2CO}-FYDWV[Bip]R[NMeA][ξW]RLVSCG-NH2; thioether N-14), the figure is 0.14 µM.
